Columns and labels:
HGSOC cells = experiment: Growth rate inhibition (GR) by CellTiter-Glo and GR calculator; format: cell-based; details: for effect on growth rate (GR): relative to untreated control
From the text: To confirm whether Cyclin E1 expression levels were responsible for increased sensitivity to Azenosertib, OV90, Kuramochi and COV362 cells (low endogenous expression levels of Cyclin E1) were transduced with a lentiviral vector carrying the CCNE1 gene or with an empty vector control. Stable OV90, Kuramochi and COV362 cell lines were established by puromycin selection. Cyclin E1 overexpression in the stable OV90 cell line compared to empty vector control cells was confirmed by Western blotting (FIG. 1C). […] Sensitization of HGSOC cell lines by overexpression of Cyclin E1 to Azenosertib was assessed by plotting the growth-rate (GR) inhibition in FIG. 1D. It was observed that Cyclin E1 overexpression sensitized HGSOC cell lines to Azenosertib by further decreasing growth rate and cell viability compared to control empty vector cell lines (FIG. 1D). GR50 and IC50 values of Azenosertib were determined by CellTiter-Glo (CTG) assay and the GR calculator.
HGSOC cells were assessed for growth rate inhibition (GR) in the presence of Azenosertib (relative to an untreated control). GR value is independent of cell division rate and was determined as described in Hafner et al. (Curr. Protoc. Chem. Biol. 9, 96-116 (2017)). HGSOC cells with high Cyclin E1 protein expression were amongst the most sensitive to Azenosertib. […] (FIG. 2). […] In Cyclin E1-low ovarian cancer cell lines, overexpression of Cyclin E1 by lentivirus increased sensitivity to Azenosertib.

[1] = test system: SKOV3 cells (non-CCNE1-amplified, wild-type CCNE1 CN=2); experiment: SKOV3 cell line-derived xenograft (CDX), tumor growth inhibition; format: in vivo, mice; details: 80 mg/kg Azenosertib daily
Method: Mice were inoculated with SKOV3 cells (non-CCNE1-amplified, wild-type CCNE1 CN=2) on the right flank with the single cell suspension of 95% viable tumor cells (1×10^7) in 100 μL McCoy's 5a and Matrigel mixture (1:1 ratio) without serum for the tumor development. Animals were randomized and treated with vehicle (20% HP-β-CD) or 80 mg/kg Azenosertib daily for 21 days when the mean tumor volume reached 215 mm^3. Tumor growth inhibition (TGI) was calculated using the following equation TGI=(1−(Td−T0)/(Cd−C0))×100%. Td and Cd are the mean tumor volumes of the treated and control animals, and T0 and C0 are the mean tumor volumes of the treated and control animals at the start of the experiment. […] (FIGS. 6A and 6B).

[2] = test system: OVCAR8 (non=CCNE1-amplified) CDX; experiment: OVCAR8 CDX model, tumor growth inhibition; format: in vivo, mice; details: 80 mg/kg Azenosertib daily for 39 days
[3] = test system: HCC1806 human triple negative breast cancer cells (CCNE1-amplified, CN=7); experiment: HCC1806 xenograft, tumor growth; format: in vivo, BALB/c nude mice; details: 80 mg/kg Azenosertib daily; after 28 days
Method: 1×10^6 HCC1806 human triple negative breast cancer cells (CCNE1-amplified, CN=7) were inoculated into the right flank of ten 6-8-week-old female BALB/c nude mice. Animals were randomized and treatment started when the mean tumor volume reached 155 mm^3. Animals were treated with vehicle (20% HP-β-CD) or 80 mg/kg Azenosertib daily and tumor volumes and body weight were measured twice weekly.

[4] = test system: OVCAR-3 cells (CCNE1-amplified, CN=14); experiment: OVCAR-3 xenograft, tumor growth inhibition; format: in vivo, NOD/SCID mice; details: 80 mg/kg Azenosertib daily; after 28 days
Method: 6-8 weeks old female NOD/SCID mice were inoculated with OVCAR-3 cells (CCNE1-amplified, CN=14) into the right flank. Animals were randomized and treated with […] (20% HP-β-CD) or 80 mg/kg Azenosertib daily once the mean tumor volume reached 111 mm^3. Tumor volumes and body weight were measured twice weekly. […] Reduction in tumor growth was also observed in animals treated with 40 mg/kg Azenosertib daily, 60 mg/kg Azenosertib daily, 80 mg/kg Azenosertib daily. (FIGS. 8C and 8D).

[5] = test system: A2780 non-CCNE1-amplified (CN = 2) (Cyclin E1-low); experiment: Azenosertib and paclitaxel combination study, A2780 tumors; format: in vivo, mice; details: Azenosertib 60 mg/kg QD and/or paclitaxel 10 mg/kg, schedules of Table 2
From the text: (§1) To evaluate the effects of Azenosertib in combination with paclitaxel, mice were inoculated with A 2780 (non-CCNE1-amplified, CN=2) (FIGS. 10A and 10B) or OVCAR3 (CCNE1 amplified, CN=14) (FIG. 11A and FIG. 11B) cells. Animals were randomized and treated as summarized in Table 2 once the mean tumor volume reached a specified size.

[6] = test system: OVCAR3 CCNE1-amplified (CN = 14) (Cyclin E1-high); experiment: Azenosertib and paclitaxel combination study, OVCAR3 tumors; format: in vivo, mice; details: Azenosertib 60 mg/kg QD × 28 and/or paclitaxel 5 mg/kg 4 days on, 3 days off × 4 cycles
From the text: as §1

[7] = test system: CCNE1-amplified platinum-resistant ovarian cancer; experiment: Azenosertib in one heavily pre-treated subject (Example 10); format: in vivo, human; details: at least 400 mg once a day, 5 days on, two off days, for 11 months
Method: The subject was selected to have CCNE1-amplified status (confirmed by Foundation assay) and was administered Azenosertib in accordance with an intermittent dosing schedule of at least 400 mg Azenosertib once a day for five consecutive days, followed by two off days for 11 months. The subject is a person who received 10 prior lines of therapy: (1) Avelumab (SD); (2) Doxorubicin Liposomal (PD); (3) Topotecan/bevacizumab (PD); (4) Cyclophosphamide/bevacizumab (unk); (5) XMT1536 (NaPi2b ADC) (PR); (6) APG115 (MDM2 inh)/Pembrolizumab (SD); (7) ABBV-155 ([…] ADC) (PD); (8) NC 318 (Siglec-15 mA B) (SD); (9) SM 08502 (CLK inhibitor) (PD); (10) NBMBMX (HDAC8 inh) (SD).

[8] = test system: SKOV3, OVCAR3 and HCC1806 tumors; experiment: Tolerability in tumor-bearing mice dosed orally every day (Example 3); format: in vivo, NOD/SCID mice or BALB/c nude mice
Method: NOD/SCID mice (SKOV3-Cyclin E1-low and OVCAR3-Cyclin E1-high) or BALB/c nude mice (HCC1806) bearing corresponding tumors were dosed orally every day for the time as shown in FIGS. 5A and 8A. Treatment was well-tolerated and the change in tumor volume was plotted against time of administration. Target engagement of Azenosertib (decreased pCDK1) and γH2AX were examined by IHC in tumors after 12 hrs of Azenosertib treatment in SKOV3-Cyclin E1-low and OVCAR3-Cyclin E1-high cells. Y-axis represents the sum of H-score evaluated by 3 independent pathologists (FIGS. 4B and 4C). Replication stress markers pCHK1 and γH2AX were determined by Western Blot in OVCAR3 tumor samples with or without Azenosertib treatment for 12 hrs (FIG. 4D).

[9] = test system: CCNE1-amplified platinum-resistant ovarian cancer; set-up: key: CR: complete response; PR: partial response; SD: stable disease; PD: progressive disease; NE: not evaluable; NA: not available; details: one subject, before Azenosertib; cited from earlier work

## C=CCn1c(=O)c2cnc(Nc3ccc(N4CCN(C)CC4)cc3)nc2n1-c1ccc2c(n1)[C@@](O)(CC)CC2 [Azenosertib]
HGSOC cells; COV362, JHOMI, OAW28, OVCAR3, CAOV3, and OVCAR4 cells
  effect on growth rate (GR): cytotoxic effect
HGSOC cells; ES2 and TYK-nu cells
  effect on growth rate (GR): cytotoxic effect
HGSOC cells; OV90 and Kuramochi cells
  effect on growth rate (GR): inhibitory effect
HGSOC cells; ovarian cancer cell lines overexpressing Cyclin E1 protein (Cyclin E1-high)
  GRmax: < −0.5
[1]
  average tumor growth inhibition TGI(80 mpk, Day 28): 51.5%
[2]
  average tumor growth inhibition TGI(80 mpk, Day 28): 52.8%
[3]
  reduced tumor growth vs vehicle: 63.5%
[4]
  reduced tumor growth TGI(80 mpk, Day 28): 88%
[5]
  Tumor Growth Inhibition: 34%
[6]
  Tumor Growth Inhibition: 68%
[7]
  durable cPR: −71%
[8]
  tolerability of treatment: well-tolerated

## CC(=O)O[C@H]1C(=O)[C@@]2(C)[C@H]([C@H](OC(=O)c3ccccc3)[C@]3(O)C[C@H](OC(=O)[C@H](O)[C@@H](NC(=O)c4ccccc4)c4ccccc4)C(C)=C1C3(C)C)[C@]1(OC(C)=O)CO[C@@H]1C[C@@H]2O [Paclitaxel, paclitaxel, reference compound]
[5]
  Tumor Growth Inhibition: 46%
[6]
  Tumor Growth Inhibition: 74%

## CN1CCN(c2cc(C(=O)Nc3cc4cc(-c5cnn(C)c5)ccc4cn3)ccn2)CC1 [SM 08502, reference compound]
[9]
  response to prior line of therapy: PD

## Avelumab: prior line of therapy of the subject [reference compound]
[9]
  response to prior line of therapy: SD

B1: XMT1536 (conjugate, chains of the INN, looked up)
VH: QVQLVQSGAEVVKPGASVKMSCKASGYTFTGYNIHWVKQAPGQGLEWIGAIYPGNGDTSYKQKFRGRATLTADTSTSTVYMELSSLRSEDSAVYYCARGETARATFAYWGQGTLVTVSS
VL: DIQMTQSPSSLSASVGDRVTITCSASQDIGNFLNWYQQKPGKTVKVLIYYTSSLYSGVPSRFSGSGSGTDYTLTISSLQPEDFATYYCQQYSKLPLTFGQGTKLELK
modifications: rilsodotin (auristatin) payload
[9]
  response to prior line of therapy: PR

B2: ABBV-155 (conjugate, chains of the INN, looked up)
VH: EVQLQESGPGLVKPSETLSLTCAVTGYSITSGYSWHWIRQFPGNGLEWMGYIHSSGSTNYNPSLKSRISISRDTSKNQFFLKLSSVTAADTAVYYCAGYDDYFEYWGQGTTVTVSS
VL: DIQMTQSPSSLSASVGDRVTITCKASQNVGFNVAWYQQKPGKSPKALIYSASYRYSGVPSRFSGSGSGTDFTLTISSLQPEDFAEYFCQQYNWYPFTFGQGTKLEIK
modifications: clezutoclax payload
[9]
  response to prior line of therapy: PD
